Data from ChEMBL document CHEMBL1201862, “PubChem BioAssay data set” (2004).
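Where inhibition never reached the appropriate level, the endpoint shown equals the highest concentration tested. Otherwise, values were interpolated linearly from a five-concentration, 48-hour dose response in 96-well plates. Abbreviation: GI50, concentration required for 50% inhibition of growth.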 The source made the active and inactive calls. Cut-off read from the data, not from the text of the source: active = GI50 up to about 1.1 µM and inactive = higher.

Columns and labels:
Assay in all cases: growth of human tumour cells (NCI), 48 h
[1] = test system: SW-620
[2] = test system: 786-0
[3] = test system: SK-MEL-28
[4] = test system: HOP-18
[5] = test system: SK-MEL-2
[6] = test system: CAKI-1
[7] = test system: IGROV-1
[8] = test system: SF-295
[9] = test system: HCT-116
[10] = test system: HT-29
[11] = test system: EKVX
[12] = test system: NCI-H226
[13] = test system: SF-539
[14] = test system: SK-MEL-5
[15] = test system: DMS-273
[16] = test system: KM-20L2
[17] = test system: LXFL 529
[18] = test system: UACC-62
[19] = test system: Malme-3M
[20] = test system: OVCAR-5
[21] = test system: A549
[22] = test system: XF498
[23] = test system: RPMI-8226
[24] = test system: RXF 631
[25] = test system: HCT-15
[26] = test system: U-251
[27] = test system: M19-MEL
[28] = test system: UACC-257
[29] = test system: A498
[30] = test system: HCC 2998
[31] = test system: SNB-19
[32] = test system: SF-268
[33] = test system: SNB-75
[34] = test system: SR
[35] = test system: UO-31
[36] = test system: NCI-H460
[37] = test system: OVCAR-4
[38] = test system: KM12
[39] = test system: SNB-78
[40] = test system: M14
[41] = test system: LOX IMVI
[42] = test system: RXF 393
[43] = test system: DLD-1
[44] = test system: NCI-H23
[45] = test system: OVCAR-3
[46] = test system: ACHN
[47] = test system: NCI-H522
[48] = test system: COLO 205
[49] = test system: HOP-62
[50] = test system: SN12C
[51] = test system: DMS-114
[52] = test system: OVCAR-8
[53] = test system: MOLT-4
[54] = test system: TK-10
[55] = test system: K562
[56] = test system: CCRF-CEM
[57] = test system: SK-OV-3
[58] = test system: HOP-92

O=C(c1ccccc1)[C@@H]1C[C@H](Sc2ccccc2)c2cc(Cl)ccc2N1
GI50 [1]: 22.5 µM (inactive)
GI50 [2]: 18.2 µM (inactive)
GI50 [3]: 17.9 µM (inactive)
GI50 [4]: > 100 µM (inactive)
GI50 [5]: 31.8 µM (inactive)
GI50 [6]: 42.2 µM (inactive)
GI50 [7]: 32.3 µM (inactive)
GI50 [8]: 28.1 µM (inactive)
GI50 [9]: 23.1 µM (inactive)
GI50 [10]: 22.2 µM (inactive)
GI50 [11]: 10 µM (inactive)
GI50 [12]: 25.6 µM (inactive)
GI50 [13]: 16.9 µM (inactive)
GI50 [14]: 11.7 µM (inactive)
GI50 [15]: 24 µM (inactive)
GI50 [16]: 26.9 µM (inactive)
GI50 [17]: 24 µM (inactive)
GI50 [18]: 19.5 µM (inactive)
GI50 [19]: 32.4 µM (inactive)
GI50 [20]: 37.6 µM (inactive)
GI50 [21]: 28.5 µM (inactive)
GI50 [22]: 18.9 µM (inactive)
GI50 [23]: 23.7 µM (inactive)
GI50 [24]: 28.1 µM (inactive)
GI50 [25]: 25.4 µM
GI50 [26]: 21.2 µM (inactive)
GI50 [27]: 30.1 µM (inactive)
GI50 [28]: 17.1 µM (inactive)
GI50 [29]: 11.5 µM (inactive)
GI50 [30]: 20.5 µM (inactive)
GI50 [31]: 43.3 µM (inactive)
GI50 [32]: 19 µM (inactive)
GI50 [33]: 18.8 µM (inactive)
GI50 [34]: 14 µM (inactive)
GI50 [35]: 12.7 µM (inactive)
GI50 [36]: 26.5 µM (inactive)
GI50 [37]: 37.5 µM (inactive)
GI50 [38]: 57.5 µM (inactive)
GI50 [39]: 36.9 µM (inactive)
GI50 [40]: 28.2 µM (inactive)
GI50 [41]: 23.5 µM (inactive)
GI50 [42]: 6.64 µM (inactive)
GI50 [43]: 23.4 µM (inactive)
GI50 [44]: 20.2 µM (inactive)
GI50 [45]: 23 µM (inactive)
GI50 [46]: 29.2 µM (inactive)
GI50 [47]: 22.1 µM (inactive)
GI50 [48]: 45.5 µM (inactive)
GI50 [49]: 51.6 µM (inactive)
GI50 [50]: 15.7 µM (inactive)
GI50 [51]: 21.1 µM (inactive)
GI50 [52]: 23.4 µM (inactive)
GI50 [53]: 7.08 µM (inactive)
GI50 [54]: 25.2 µM (inactive)
GI50 [55]: 18.9 µM (inactive)

O=C(CCC(=O)Nc1ccc(Cl)c(Cl)c1)CC(=O)c1ccc(Br)cc1
GI50 [1]: > 100 µM (inactive)
GI50 [2]: > 100 µM (inactive)
GI50 [3]: > 100 µM (inactive)
GI50 [4]: > 100 µM (inactive)
GI50 [5]: > 100 µM (inactive)
GI50 [6]: > 100 µM (inactive)
GI50 [56]: > 100 µM (inactive)
GI50 [7]: > 100 µM (inactive)
GI50 [9]: > 100 µM (inactive)
GI50 [10]: > 100 µM (inactive)
GI50 [11]: > 100 µM (inactive)
GI50 [12]: > 100 µM (inactive)
GI50 [13]: > 100 µM (inactive)
GI50 [14]: > 100 µM (inactive)
GI50 [16]: > 100 µM (inactive)
GI50 [17]: 61.8 µM (inactive)
GI50 [18]: 36.2 µM (inactive)
GI50 [19]: > 100 µM (inactive)
GI50 [20]: > 100 µM (inactive)
GI50 [21]: > 100 µM (inactive)
GI50 [22]: > 100 µM (inactive)
GI50 [23]: > 100 µM (inactive)
GI50 [24]: > 100 µM (inactive)
GI50 [25]: 40.5 µM
GI50 [26]: > 100 µM (inactive)
GI50 [27]: > 100 µM (inactive)
GI50 [28]: 49.4 µM (inactive)
GI50 [57]: > 100 µM (inactive)
GI50 [29]: > 100 µM (inactive)
GI50 [31]: > 100 µM (inactive)
GI50 [32]: > 100 µM (inactive)
GI50 [33]: 61.7 µM (inactive)
GI50 [35]: > 100 µM (inactive)
GI50 [37]: > 100 µM (inactive)
GI50 [38]: > 100 µM (inactive)
GI50 [39]: > 100 µM (inactive)
GI50 [40]: > 100 µM (inactive)
GI50 [41]: > 100 µM (inactive)
GI50 [42]: > 100 µM (inactive)
GI50 [43]: > 100 µM (inactive)
GI50 [44]: > 100 µM (inactive)
GI50 [45]: > 100 µM (inactive)
GI50 [46]: 71.8 µM (inactive)
GI50 [47]: > 100 µM (inactive)
GI50 [48]: > 100 µM (inactive)
GI50 [50]: > 100 µM (inactive)
GI50 [51]: > 100 µM (inactive)
GI50 [52]: > 100 µM (inactive)
GI50 [53]: > 100 µM (inactive)
GI50 [58]: > 100 µM (inactive)
GI50 [54]: > 100 µM (inactive)
GI50 [55]: 47.8 µM (inactive)
